The values that follow come from patent US11628160B2, “Compositions and methods for treating brain injury” (Azevan Pharmaceuticals, Inc., priority 2017, dated 2023).

Each structure is given as a SMILES string.

The assay has as its target T1, human V1a receptor (Homo sapiens, UniProt P37288).
T1 construct: host or cells: CHO cells
As to the kind of experiment: Human vasopressin V1a receptor binding assay. The note with it: hV1a CHO cell line, competition with 1 nM 3H-AVP; for IC50: read-out: V1a Binding Affinity IC50; for Ki: read-out: V1a Ki. Here is the method:
EXAMPLE. Human vasopressin V1a receptor binding assay. A cell line expressing the human V1a receptor in CHO cells (henceforth referred to as the hV1a cell line) was obtained from Dr. Michael Brownstein, NIMH, Bethesda, Md., USA. The hV1a cDNA sequence is described by Thibonnier et al., Journal of Biological Chemistry, 269, 3304-3310 (1994), and the expression method was the same as described by Morel et al. (1992). The hV1a cell line was grown in alpha-MEM with 10% fetal bovine serum and 250 ug/ml G418 (Gibco, Grand Island, N.Y., USA). For competitive binding assay, hV1a cells were plated into 6-well culture plate at 1:10 dilution from a confluency flask, and maintained in culture for at least two days. Culture medium was then removed, cells were washed with 2 ml binding buffer (25 mM Hepes, 0.25% BSA, 1×DMEM, PH=7.0). To each well, 990 μl binding buffer containing 1 nM 3H-AVP was added, and followed by 10 μl series diluted Example compounds dissolved in DMSO. […] 100 nM cold AVP (Sigma) was used to assess non-specific binding. Cells were incubated for 45 minutes at 37° C., assay mixture was removed and each well was washed three times with PBS (pH=7.4). 1 ml 2% SDS was added per well and plates were let sit for 30 minutes. The whole content in a well was transferred to a scintillation vial. Each well was rinsed with 0.5 ml PBS which was then added to the corresponding vial. Scintillation fluid (Ecoscint, National Diagnostics, Atlanta, Ga.) was then added at 3 ml per vial. Samples were counted in a liquid scintillation counter (Beckman LS3801). IC50 values were calculated by Prism Curve fitting software.
All of the alkanedioic esters and amides exemplified in the foregoing examples dissolved in DMSO were tested in this assay. Binding curves were generated according to methods described by Thibonnier et al. (1994). [^3H]-AVP was added to the hV1a cell cultures followed by 10-fold dilutions of each test compound.

T1 sequence (P37288 whole entry): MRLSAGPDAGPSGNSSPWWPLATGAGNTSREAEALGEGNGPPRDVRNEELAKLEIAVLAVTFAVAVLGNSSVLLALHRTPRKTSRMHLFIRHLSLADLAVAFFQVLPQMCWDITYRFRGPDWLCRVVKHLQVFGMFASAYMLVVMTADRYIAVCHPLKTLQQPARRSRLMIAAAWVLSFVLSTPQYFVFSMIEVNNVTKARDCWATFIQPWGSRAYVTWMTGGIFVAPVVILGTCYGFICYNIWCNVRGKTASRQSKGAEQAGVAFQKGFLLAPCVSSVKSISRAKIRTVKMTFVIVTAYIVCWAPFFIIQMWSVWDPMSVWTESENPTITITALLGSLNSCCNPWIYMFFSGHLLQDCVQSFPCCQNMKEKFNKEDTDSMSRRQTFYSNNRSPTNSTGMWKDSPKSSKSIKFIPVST

Usually IC50 stands for the concentration that inhibits the measured activity by half. In the case of `O=C(NCc1cccc(C(F)(F)F)c1)C(CC(=O)N1CCN(N2CCCC2)CC1)N1C(=O)C(N2C(=O)OCC2c2ccccc2)C1C=Cc1ccccc1` (stereo not drawn) [Example 47], the IC50 was roughly 50 nM.
`O=C(NCc1cccc(C(F)(F)F)c1)[C@H](CC(=O)N1CCN(C2CCCCC2)CC1)N1C(=O)[C@@H](N2C(=O)OC[C@@H]2c2ccccc2)[C@H]1/C=C/c1ccccc1` [Example 66]: the IC50 stood at 50 nM.
Take `O=C(CCC(C(=O)NCc1cccc(C(F)(F)F)c1)N1C(=O)C(N2C(=O)OCC2c2ccccc2)C1C=Cc1ccccc1)NCCN1CCCCC1` (stereo not drawn) [Example 87]: the IC50 was found to be 15 nM.
Broadly, the Ki is the dissociation constant of the complex between target and ligand, obtained from inhibition or displacement. With `O=C(NCc1cccc(C(F)(F)F)c1)[C@H](CCC(=O)N1CCN(N2CCCC2)CC1)N1C(=O)[C@@H](N2C(=O)OC[C@@H]2c2ccccc2)[C@H]1/C=C/c1ccccc1` [Example 91], the IC50 was 3.24 nM and the Ki was 1.99 nM.
For the molecule `O=C(NCc1cccc(C(F)(F)F)c1)C(CCC(=O)N1CCN(C2CCCCC2)CC1)N1C(=O)C(N2C(=O)OCC2c2ccccc2)C1C=Cc1ccccc1` (stereo not drawn) [Example 120H], the half-maximal inhibitory concentration (IC50) stood at 2.75 nM and the Ki turned out to be 1.68 nM.
For `O=C(NCc1cccc(C(F)(F)F)c1)C(CC(=O)N1CCN(N2CCCC2)CC1)N1C(=O)C(N2C(=O)OCC2c2ccccc2)C1C=Cc1ccccc1` (stereo not drawn) [Example 134B], in that order: 44.8 nM and 27.5 nM.
Regarding `O=C(NCc1cccc(OC(F)(F)F)c1)C(CCC(=O)N1CCN(C2CCCCC2)CC1)N1C(=O)C(N2C(=O)OCC2c2ccccc2)C1C=Cc1ccccc1` (stereo not drawn) [Example 172], the IC50 was determined as 4.5 nM and the Ki worked out at 2.78 nM.
Regarding `O=C(NCc1cc(Cl)cc(Cl)c1)C(CCC(=O)N1CCN(C2CCCCC2)CC1)N1C(=O)C(N2C(=O)OCC2c2ccccc2)C1C=Cc1ccccc1` (stereo not drawn) [Example 174], the IC50 turned out to be 1.46 nM and the Ki is 0.89 nM.
For `O=C(NCc1cc(Cl)ccc1Cl)C(CCC(=O)N1CCN(C2CCCCC2)CC1)N1C(=O)C(N2C(=O)OCC2c2ccccc2)C1C=Cc1ccccc1` (stereo not drawn) [Example 175], the IC50 was 4.56 nM and the Ki amounted to 2.79 nM.
Taken in the same sequence, the figures for `O=C(NCc1cccc(Cl)c1Cl)C(CCC(=O)N1CCN(C2CCCCC2)CC1)N1C(=O)C(N2C(=O)OCC2c2ccccc2)C1C=Cc1ccccc1` (stereo not drawn) [Example 176] were 0.61 nM and 0.38 nM.
For `O=C(NCc1cc(C(F)(F)F)ccc1F)C(CCC(=O)N1CCN(C2CCCCC2)CC1)N1C(=O)C(N2C(=O)OCC2c2ccccc2)C1C=Cc1ccccc1` (stereo not drawn) [Example 177], in that order: 0.67 nM and 0.41 nM.
Take `O=C(NCc1cc(F)cc(C(F)(F)F)c1)C(CCC(=O)N1CCN(C2CCCCC2)CC1)N1C(=O)C(N2C(=O)OCC2c2ccccc2)C1C=Cc1ccccc1` (stereo not drawn) [Example 179]: the IC50 is 0.81 nM and the inhibition constant (Ki) came out at 0.51 nM.
Taken in the same sequence, the figures for `O=C(NCc1cccc(C(F)(F)F)c1F)C(CCC(=O)N1CCN(C2CCCCC2)CC1)N1C(=O)C(N2C(=O)OCC2c2ccccc2)C1C=Cc1ccccc1` (stereo not drawn) [Example 180] were 0.33 nM and 0.2 nM.
For `O=C(NCc1ccccc1C(F)(F)F)C(CCC(=O)N1CCN(C2CCCCC2)CC1)N1C(=O)C(N2C(=O)OCC2c2ccccc2)C1C=Cc1ccccc1` (stereo not drawn) [Example 182], in that order: 1.52 nM and 0.93 nM.
Regarding `O=C(NCc1cccc(Cl)c1)C(CCC(=O)N1CCN(C2CCCCC2)CC1)N1C(=O)C(N2C(=O)OCC2c2ccccc2)C1C=Cc1ccccc1` (stereo not drawn) [Example 187], the IC50 was determined as 1 nM and the Ki is 0.66 nM.
For `O=C(NCc1cc(C(F)(F)F)cc(C(F)(F)F)c1)C(CCC(=O)N1CCN(C2CCCCC2)CC1)N1C(=O)C(N2C(=O)OCC2c2ccccc2)C1C=Cc1ccccc1` (stereo not drawn) [Example 188], in that order: 7.26 nM and 4.45 nM.
For `O=C(NCc1cccc([N+](=O)[O-])c1)C(CCC(=O)N1CCN(C2CCCCC2)CC1)N1C(=O)C(N2C(=O)OCC2c2ccccc2)C1C=Cc1ccccc1` (stereo not drawn) [Example 189], the IC50 came to 1.7 nM and the inhibition constant Ki amounted to 1.04 nM.
In the case of `O=C(NCc1cccc(Br)c1)C(CCC(=O)N1CCN(C2CCCCC2)CC1)N1C(=O)C(N2C(=O)OCC2c2ccccc2)C1C=Cc1ccccc1` (stereo not drawn) [Example 190], the IC50 is 0.88 nM and the Ki stood at 0.54 nM.
On to `O=C(NCc1ccccc1)C(CCC(=O)N1CCN(C2CCCCC2)CC1)N1C(=O)C(N2C(=O)OCC2c2ccccc2)C1C=Cc1ccccc1` (stereo not drawn) [Example 191], for which the IC50 was found to be 2.92 nM and the Ki amounted to 1.79 nM.
As for `Cc1cccc(CNC(=O)C(CCC(=O)N2CCN(C3CCCCC3)CC2)N2C(=O)C(N3C(=O)OCC3c3ccccc3)C2C=Cc2ccccc2)c1` (stereo not drawn) [Example 193], the IC50 is 1.17 nM and the Ki was found to be 0.72 nM.
Turning to `CCCCN(Cc1ccccc1)C(=O)[C@H](CCC(=O)N1CCN(C2CCCCC2)CC1)N1C(=O)[C@@H](N2C(=O)OC[C@@H]2c2ccccc2)[C@H]1/C=C/c1ccccc1` [Example 198], the IC50 was roughly 100 nM.
For `O=C(NCCc1ccccc1)C(CCC(=O)N1CCN(C2CCCCC2)CC1)N1C(=O)C(N2C(=O)OCC2c2ccccc2)C1C=Cc1ccccc1` (stereo not drawn) [Example 200], the IC50 is 5.08 nM and the Ki stood at 3.11 nM.
In the case of `COc1cc(CNC(=O)C(CCC(=O)N2CCN(C3CCCCC3)CC2)N2C(=O)C(N3C(=O)OCC3c3ccccc3)C2C=Cc2ccccc2)cc(OC)c1` (stereo not drawn) [Example 201], the IC50 was determined as 10.5 nM and the Ki came to 6.43 nM.
Take `CC(C)(NC(=O)C(CCC(=O)N1CCN(C2CCCCC2)CC1)N1C(=O)C(N2C(=O)OCC2c2ccccc2)C1C=Cc1ccccc1)c1ccccc1` (stereo not drawn) [Example 204]: the IC50 was 6 nM and the Ki is 3.7 nM.
`CN(Cc1cccc(C(F)(F)F)c1)C(=O)C(CCC(=O)N1CCN(C2CCCCC2)CC1)N1C(=O)C(N2C(=O)OCC2c2ccccc2)C1C=Cc1ccccc1` (stereo not drawn) [Example 205]: the IC50 amounted to 0.34 nM and the Ki amounted to 0.21 nM.
Turning to `CC(NC(=O)C(CCC(=O)N1CCN(C2CCCCC2)CC1)N1C(=O)C(N2C(=O)OCC2c2ccccc2)C1C=Cc1ccccc1)c1ccccc1` (stereo not drawn) [Example 206], the IC50 is 1.58 nM and the Ki amounted to 0.97 nM.
With `O=C(NC1(c2ccccc2)CC1)C(CCC(=O)N1CCN(C2CCCCC2)CC1)N1C(=O)C(N2C(=O)OCC2c2ccccc2)C1C=Cc1ccccc1` (stereo not drawn) [Example 207], the IC50 stood at 4.48 nM and the Ki amounted to 2.74 nM.
As for `O=C(NCc1ccccn1)C(CCC(=O)N1CCN(C2CCCCC2)CC1)N1C(=O)C(N2C(=O)OCC2c2ccccc2)C1C=Cc1ccccc1` (stereo not drawn) [Example 208], the IC50 is 16.3 nM and the Ki stood at 10 nM.
Taken in the same sequence, the figures for `O=C(NCc1cccnc1)C(CCC(=O)N1CCN(C2CCCCC2)CC1)N1C(=O)C(N2C(=O)OCC2c2ccccc2)C1C=Cc1ccccc1` (stereo not drawn) [Example 209] were 16 nM and 9.8 nM.
Taken in the same sequence, the figures for `O=C(NCc1ccncc1)C(CCC(=O)N1CCN(C2CCCCC2)CC1)N1C(=O)C(N2C(=O)OCC2c2ccccc2)C1C=Cc1ccccc1` (stereo not drawn) [Example 210] were 29.5 nM and 18.1 nM.
`O=C(NCc1ccco1)C(CCC(=O)N1CCN(C2CCCCC2)CC1)N1C(=O)C(N2C(=O)OCC2c2ccccc2)C1C=Cc1ccccc1` (stereo not drawn) [Example 211]: the IC50 is 5.37 nM and the Ki stood at 3.29 nM.
As to `Cc1ccc(CNC(=O)C(CCC(=O)N2CCN(C3CCCCC3)CC2)N2C(=O)C(N3C(=O)OCC3c3ccccc3)C2C=Cc2ccccc2)o1` (stereo not drawn) [Example 212], the IC50 came out at 0.95 nM and the Ki came out at 0.58 nM.
